Measured values published in ChEMBL document CHEMBL3832033, “DailyMed|setid=f21494ed-c5e8-4ddf-b140-ecd68c5c312b | CLARITHROMYCIN EXTENDED RELEASE - clarithromycin tablet, film coated, extended release|Ranbaxy Pharmaceuticals Inc”.
“And” between values parts separate entries of the source, which are not always exact repeats. Equal values may be shown once.

Key:
[1] = (§1) Pharmacokinetic parameters for Clarithromycin evaluated after single oral administration of 1000 or 2 x 500 mg Clarithromycin extended-release tablets to 34 adult volunteers under fasting and feeding conditions.; assay type: ADME, organism-based; design: dose 1000 mg, dose 2 x 500, route oral; settings: human, in vivo, dosed compound id 21, dosed compound name CLARITHROMYCIN, gender male and female, regimen Single dose, tissue Plasma
Homo sapiens = assay: as §1; assay type: ADME, organism-based; design: dose 1000 mg, dose 2 x 500, route oral; settings: in vivo, po, dosed compound id 21, dosed compound name CLARITHROMYCIN, gender male and female, regimen Single dose, tissue Plasma

AUC ([1]; po, 1000 mg, dietary status Fasting, read-out: AUC(0-t)): 36600 ng·h/mL | Cmax ([1]; po, 1000 mg, dietary status Fed): 3960 ng/mL | Tmax ([1]; dietary status Fasting, dose 1000 mg, route oral): 11 h | Tmax (Homo sapiens; dietary status Fasting, dose 2 x 500 mg): 9.588 h | AUC(0-t) (Homo sapiens; dietary status Fasting): 37615.9151 ng·h/mL | Tmax (Homo sapiens; dietary status Fed, dose 1000 mg): 6.118 h | Tmax (Homo sapiens; dietary status Fed, dose 2 x 500 mg): 6.235 h | Cmax (Homo sapiens; dietary status Fed): 3478.3286 ng/mL
SMILES: CC[C@H]1OC(=O)[C@H](C)[C@@H](O[C@H]2C[C@@](C)(OC)[C@@H](O)[C@H](C)O2)[C@H](C)[C@@H](O[C@@H]2O[C@H](C)C[C@H](N(C)C)[C@H]2O)[C@](C)(OC)C[C@@H](C)C(=O)[C@H](C)[C@@H](O)[C@]1(C)O [CLARITHROMYCIN]
AUC(0-t) (Homo sapiens; dietary status Fed): 58485.5053 ng·h/mL and 60796.1185 ng·h/mL
